Data from patent publication US6017932A, “Pharmaceutical compositions containing at least one NSAID having increased bioavailability” (priority 1996, dated 2000).
“Also recorded” adds a separate entry of the source. Like-named read-outs stand apart in the source and are kept apart here.

Experiments:
plasma proteins = settings: human; cited from earlier work
[1] = Plasma levels of Nimesulide in rats after composition with/without Piperine (Experiment I); format: in vivo, albino rats
Description: The rats were housed 5 per cage with food and water provided ad libidum.
On the day of experimentation the rats were randomised into ten batches of 5 rats each. Four groups were formed. Group I consisted of one batch of 5 rats, which was kept as control which received no drug treatment. Group II consisted of four batches of five rats each. […] Rats of batch I from Group II were sacrificed 60 minutes post treatment after Chloroform anaesthesia. Batch 2,3 and 4 were similarly sacrificed at 120 min., 240 min. and 360 min. post treatment respectively. Blood was collected from the rats from the ventricle into heparinised tubes.
Group III consisted of one batch of 5 rats, which received only Piperine at a dose level of 1.0 mg/kg body wt. The animals were sacrificed 160 minutes post treatment after Chloroform anaesthesia. Blood was collected from the rats from the ventricle into heparinised tubes.
Group IV consisted of 4 batches of 5 rats each. […] Rats of batch 1 from Group IV were sacrificed 60 minutes post treatment after Chloroform anaesthesia. Batch 2, 3 and 4 were similarly sacrificed at 120 min., 240 min. and 360 min. post treatment respectively. Blood was collected from the rats from the ventricle into heparinised tubes.
The blood samples were centrifuged at 3700 rpm and the plasma separated. To 1 ml plasma 0.5 ml of HCl was added and then extracted with 2 ml of benzene. Extracted benzene was evaporated in a water bath at 95° C. and reconstituted with 100 μl of mobile phase and 10 μl was injected into the HPLC.
Waters HPLC fitted with C8 μ Bondapack was used along with Waters UV-Vis detector (254 nm). Acetonitrile 50% with 50% Ammonium di-hydrogen Phosphate (0.01M) in double distilled, filtered (0.22 μ) water was used as the mobile phase.
Unpaired student T test was applied on the data. Level of significance was fixed at p<0.05.

[2] = rectal, nimesulide 100 and 200 mg; cited from earlier work
in vivo = settings: rat, plasma, po, 10 mg/kg
Description: The single test point pharmacokinetic studies were performed in two groups of rats. […] Rats were sacrificed at 90 minutes. post treatment and blood samples were analysed by HPLC.

[3] = cited from earlier work
[4] = test system: renal prostaglandin synthesis; settings: rats; cited from earlier work
yeast-induced fever = settings: rats with yeast-induced fever; cited from earlier work
[5] = cited from earlier work; remark: listed apart in the source
[6] = relative to other NSAIDs; cited from earlier work
[7] = test system: painful inflammatory conditions; settings: cited from earlier work
[8] = test system: histamine release, neutrophil myeloperoxidase pathway, bradykinin activity, phosphodiesterase type IV and others; settings: in words; cited from earlier work
[9] = cited from earlier work; for mean increase in AUC: formulations with Piperine vs without; for effect of Piperine on bio-availability (in words): with Piperine
[10] = in words; cited from earlier work
COX-II = settings: vs COX-I; cited from earlier work
[11] = oral, 50 to 200 mg nimesulide, healthy adult volunteers

Q: With `CS(=O)(=O)Nc1ccc([N+](=O)[O-])cc1Oc1ccccc1` [Nimesulide, N-(4-nitro, 2-phenoxyphenyl) methanesulfonamide] as the compound, how does the “bound to plasma proteins” value (plasma proteins) read?
A: 99%

Q: What about the “Concentration of the drug in plasma” value ([1]; 240 min, Nimesulide alone 1.8 mg/kg) of the same compound?
A: 4.6 ± 1.4 kg/mL

Q: What about the concentration at 1 h ([1]; rat, plasma, po, 1.8 mg/kg) of the same compound?
A: 5800 ± 1700 µg/mL

Q: What about the concentration at 2 h ([1]; rat, plasma, po, 1.8 mg/kg) of the same compound?
A: 7900 ± 2300 µg/mL

Q: What about the concentration at 4 h ([1]; rat, plasma, po, 1.8 mg/kg) of the same compound?
A: 4600 ± 1400 µg/mL

Q: And the concentration at 6 h ([1]; rat, plasma, po, 1.8 mg/kg)?
A: 2200 ± 1100 µg/mL

Q: And the peak serum concentrations [2]?
A: 2.14 to 2.32 mg/L

Q: What about the “time to peak serum concentration” value [2] of the same compound?
A: 3 to 4.58 h

Q: And the concentration at 1.5 h (in vivo)?
A: 8820 µg/mL

Q: What about the “effect of food on absorption” value ([3]; concomitant administration of food) of the same compound?
A: may decrease the rate, but not the extent, of absorption

Q: What about the “apparent volume of distribution” value ([3]; following oral administration) of the same compound?
A: 0.19 to 0.35 L/kg

Q: What about the “dose excreted unchanged in the urine” value ([3]; human, in vivo, po) of the same compound?
A: 1 to 3%

Q: And the biotransformation ([3]; in words)?
A: almost completely biotransformed into 4-hydroxy-nimesulide

Q: And the oral drug absorption ([3]; in words)?
A: nearly complete

Q: And the peak serum concentrations [3, 11]?
A: 1.98 to 9.85 mg/L

Q: What about the “time to peak serum concentration” value [3, 11] of the same compound?
A: 1.22 to 3.17 h

Q: What about the elimination half-life ([3]; parent compound) of the same compound?
A: 1.56 to 4.95 h

Q: What about the “effect on renal prostaglandin synthesis” value [4] of the same compound?
A: little effect on renal prostaglandin synthesis in rats

Q: And the antipyretic potency (yeast-induced fever)?
A: superior antipyretic potency to indomethacin, ibuprofen, aspirin and paracetamol (acetaminophen)

Q: What about the “pharmacokinetic profile in special populations” value ([5]; children, elderly volunteers, moderately impaired renal function (creatinine clearance 1.8 to 4.8 L/h)) of the same compound?
A: not significantly altered

Q: What about the “ulcerogenicity / gastric tolerance” value [6] of the same compound?
A: less ulcerogenic than aspirin, indomethacin, naproxen, piroxicam and ibuprofen; also recorded: better gastric tolerance than other commonly used NSAIDs

Q: What about the onset of analgesia ([7]; human, in vivo) of the same compound?
A: rapid onset of analgesia

Q: And the “efficacy in cancer pain” value ([7]; in words)?
A: highly efficaceous in cancer pain

Q: What about the “clinical efficacy vs placebo” value ([7]; oral mostly 200 mg/day or rectal 400 mg/day) of the same compound?
A: more effective than placebo

Q: What about the “clinical efficacy vs other NSAIDs” value ([7]; vs piroxicam, ketoprofen, naproxen, etodolac, mefenamic acid, diclofenac and others) of the same compound?
A: at least as effective as therapeutic dosages of other NSAIDs

Q: And the other effects [8]?
A: appears to exert its effects on histamine release, the neutrophil myeloperoxidase pathway, bradykinin activity, tumour necrosis factor-a release, cartilage degradation, metalloprotease synthesis, phosphodiesterase type IV inhibition, platelet aggregation and synthesis of platelet activating factor

Q: Which “mean increase in AUC” value [9] does the source give for `NC(=O)c1cnccn1` [Pyrazinamide] here?
A: 36%

Q: For `O=C(/C=C/C=C/c1ccc2c(c1)OCO2)N1CCCCC1` [Piperine, (E, E) 1-[5-(1,3-benzodioxyl-5-yl)-1-oxo-2,4-pentadenyl] piperidine], which “Plasma levels of Nimesulide” value ([1]; 120 min. post treatment, Nimesulide 1.8 mg/kg with or without Piperine 1.0 mg/kg, oral, rats) is on record?
A: Nil

Q: What about the solubility / insolubility [10] of the same compound?
A: soluble in benzene, chloroform, ether, ethyl acetate, dichloromethane, alcohol, acetic acid and insoluble in water, pet. ether

Q: Which “effect of Piperine on bio-availability (in words)” value [9] does the source give for `CC[C@@H](CO)NCCN[C@@H](CC)CO` [Ethambutol] here?
A: increase bio-availability

Q: With `CS(=O)(=O)Nc1ccc([N+](=O)[O-])cc1Oc1ccc(O)cc1` [4-hydroxy-nimesulide] as the compound, how does the accumulation ([5]; patients with moderate renal impairment) read?
A: Slight accumulation

Q: What about the other effects [8] of the same compound?
A: appears to contribute to the anti-inflammatory activity

Q: Which “effect of Piperine on bio-availability (in words)” value [9] does the source give for `CCCCNC(=O)NS(=O)(=O)c1ccc(C)cc1` [tolbutamide] here?
A: no effect on enhancing the bio-availability

Q: For `CO[C@H]1/C=C/O[C@@]2(C)Oc3c(C)c(O)c4c(O)c(c(/C=N/N5CCN(C)CC5)c(O)c4c3C2=O)NC(=O)/C(C)=C\C=C\[C@H](C)[C@H](O)[C@@H](C)[C@@H](O)[C@@H](C)[C@H](OC(C)=O)[C@@H]1C` [Rifampicin], which “mean increase in AUC” value [9] is on record?
A: 37.6%

Q: With `COc1ccc2cc(CCC(C)=O)ccc2c1` [Nabumetone] as the compound, how does the “COX-II selectivity (in words)” value (COX-II) read?
A: selectively inhibit the detrimental COX-II

Q: For `NNC(=O)c1ccncc1` [Isoniazid], which “mean increase in AUC” value [9] is on record?
A: 131%
